Reference: patent US10508092B2, “Synthesis of novel analogs of diptoindonesin G, compounds formed thereby, and pharmaceutical compositions containing them” (Wisconsin Alumni Research Foundation, priority 2016, dated 2019)
Several values for one entry are separate records, joined by “and”; a condition that tells them apart may be missing. Equal entries are not always repeated.

Experiments:
ERαY537S mutant protein = test: ELISA of ERα protein in T47D-ERαY537S cells; type: cell-based, human; details: 24 hrs, FIG. 5
Procedure: T47D cells were treated with DMSO, Fulvestrant, Dip G and a Dip G derivative (Dip G-D1, compound 17) for 24 hrs. ERα protein amounts in cell lysate were quantified using ELISA kit (R&D systems) and normalized to standard curve using purified ERα protein. The experiments were performed in triplicate. Data are represented as mean±SD, n=3.
(T47D ERα WT is available from the American Type Culture Collection, Manassas, Va.; accession no. HTB-133. The T47D ERα Y537S cell line is described in Wardell et al 2015) “Efficacy of SERD/SERM Hybrid-CDK4/6 Inhibitor Combinations in Models of Endocrine Therapy-Resistant Breast Cancer,” Clin Cancer Res. 21(22):5121-5130. […] McCormack, P. and Sapunar, F. (2008) “Pharmacokinetic profile of the fulvestrant loading dose regimen in postmenopausal women with hormone receptor-positive advanced breast cancer,” Clinical breast cancer 8:347-351.

[1] = Pharmacokinetics (plasma concentration by HPLC and LC/MS) in mice; type: in vivo; details: mouse
T47D xenograft tumor = T47D xenograft tumor growth in mice, intra-tumoral dosing; type: in vivo, mouse
Procedure: Dip G inhibited growth of T47D xenograft tumor in vivo. Dip G was synthesized as described and formulated for the in vivo treatment. Dip G was prepared by dissolving the stock powder in 100% DMSO to a final concentration of 50 mg/ml. This stock solution was then diluted 1:5 into a 40% polyethylene glycol (PEG300)/40% normal saline (0.9% NaCl) solution to a final concentration of 20% Dip G solution. The maximum tolerated dose (MTD) of Dip G was determined to be 50 mg/kg by oral and 20 mg/kg by retro-orbital injection in mouse models. To determine MTD, escalating doses of Dip G dissolved in the aforementioned formulation were injected retro-orbitally or by oral gavage daily, five days out of seven to determine the MTD. […] (Data not shown.) Dip G was intra-tumorally delivered to ERα-positive T47D xenografted mice three times a week and the tumors were monitored for three weeks. […] Control-treated tumors were 70% of original size, while tumors (n=16) treated with Dip G were 46% of original size (FIG. 3). Under these treatment conditions, some Dip G-treated tumors completely regressed. […] (AST ELISAs are available commercially from several suppliers, including Abcam, Cambridge, Mass.)
Diptoindonesin G (Dip G) was obtained from the small molecule screening facility. Dip G was prepared by dissolving the stock powder in 100% DMSO to a final concentration of 50 mg/mL. This stock solution was then diluted 1:5 into a 40% polyethylene glycol (PEG 300)/40% normal saline (0.9% NaCl) solution to a final concentration of 20% Dip G solution. Vehicle was prepared identically, substituting DMSO instead of Dip G solution. PEG and saline were filtered at […] prior to use to ensure sterility.
Twelve Foxn1-nu homozygous mice were obtained from The Jackson Laboratory (Bar Harbor, Me.). Mice were randomized to control or active treatment prior to estrogen pellet placement. After allowing time for acclimatization, estrogen pellets were surgically inserted into the test mice, subcutaneously on the back. The skin at the site of surgery was prepared by washing with povidone iodine, allowing a three-minute contact time. Surgery was performed in a laminar flow hood while mice were under anesthesia. Incisions of less than 1 cm were made low in the back using a short scissors. Slow-release estrogen pellets (0.05 mg/60 day release) were implanted in each incision. Wounds were sealed with “VETBOND”®-brand surgical adhesive (3M Company, St. Paul, Minn.). At the same time, the mice were injected with 10^7 T-47D cells (ATCC HTB-133) twice, once in each mammary fat pad underneath the leg with 100 uL of fluid per injection site, using 25G needles.
(§1) Mice were monitored twice weekly for weight changes and tumor growth (measured in diameter and volume) with calipers. Following tumors reaching an appropriate size (˜5 mm in diameter, taking approximately 3 months after grafting), intra-tumoral injections were begun with vehicle containing 20 mg/kg of Dip G or control vehicle in a total volume of 50 μL split between tumors on each mammary fat pad. Three mice (6 tumors) received control injections and eight (16 tumors) received Dip G. Injections were administered 3 times per week with at least one day of rest between injections, for a total of 10-12 injections. Cohorts were sacrificed by cage individually in numerical order, beginning with the 10th injection and sacrificing one cage per injection for pharmacokinetic time points from that injection onward. In mice with very small tumors, dosing was switched from intra-tumoral to subcutaneous at later time points.

[2] = Toxicity observations in treated mice (AST ELISA, gross tissue, injection site); type: in vivo
Procedure: Dip G was synthesized as described and formulated for the in vivo treatment. Dip G was prepared by dissolving the stock powder in 100% DMSO to a final concentration of 50 mg/ml. This stock solution was then diluted 1:5 into a 40% polyethylene glycol (PEG300)/40% normal saline (0.9% NaCl) solution to a final concentration of 20% Dip G solution. […] To determine MTD, escalating doses of Dip G dissolved in the aforementioned formulation were injected retro-orbitally or by oral gavage daily, five days out of seven to determine the MTD. […] (Data not shown.) Dip G was intra-tumorally delivered to ERα-positive T47D xenografted mice three times a week and the tumors were monitored for three weeks. […] (AST ELISAs are available commercially from several suppliers, including Abcam, Cambridge, Mass.)
as §1

CHIP ubiquitin E3 ligase = target: T1, CHIP ubiquitin E3 ligase (Homo sapiens, UniProt Q9UNE7); details: Zhao et al. 2015; cited from earlier work
T1 sequence (Q9UNE7 1-303): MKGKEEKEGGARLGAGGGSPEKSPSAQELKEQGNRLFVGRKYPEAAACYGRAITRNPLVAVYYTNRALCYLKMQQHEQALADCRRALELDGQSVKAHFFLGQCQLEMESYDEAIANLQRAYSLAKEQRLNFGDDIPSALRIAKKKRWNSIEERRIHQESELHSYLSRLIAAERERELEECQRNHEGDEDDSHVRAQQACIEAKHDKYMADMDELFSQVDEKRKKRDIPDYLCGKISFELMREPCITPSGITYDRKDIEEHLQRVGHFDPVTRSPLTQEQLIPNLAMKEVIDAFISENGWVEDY

[3] = system: mouse splenic lymphocytes (T cells); details: concanavalin A induced proliferation of mouse splenic lymphocytes; cited from earlier work
[4] = individual tumor, 20 mg/kg intra-tumoral 3 times per week, 20 mg/kg

Structure (SMILES): O=C1c2c(O)cc(O)cc2-c2c(-c3ccc(O)cc3)oc3cc(O)cc1c23 [Dip G, diptoindonesin G]
- degradation of ERαY537S mutant protein (ERαY537S mutant protein): more effective than 100 nM fulvestrant
- half-life [1]: 1 h
- tumor size as % of original size (T47D xenograft tumor; T47D xenograft, 20 mg/kg intra-tumoral 3 times per week, 21 days, n=16 tumors, control 70%): 46%
- responders (tumors decreasing by 50% or more) (T47D xenograft tumor; T47D xenograft, 12 of 16 tumors, control 17%, p=0.023): 75%
- xenografted tumor growth (T47D xenograft tumor; T47D xenograft, 21 days, versus vehicle-treated controls): strongly inhibited
- decrease in tumor volume (T47D xenograft tumor; T47D xenograft, at study completion, n=16 tumors, control 30%): 54%
- Tumor Volumes, Day 3 (T47D xenograft tumor; [4]): 113.1 mm^3 and 29.8 mm^3 and 71.4 mm^3 and 25.7 mm^3 and 69.6 mm^3 and 17.2 mm^3 and 126.0 mm^3 and 79.8 mm^3 and 144.9 mm^3 and 40.7 mm^3 and 43.3 mm^3 and 70.7 mm^3 and 30.8 mm^3 and 15.1 mm^3 and 149.4 mm^3 and 68.9 mm^3
- Tumor Volumes, Day 5 (T47D xenograft tumor; [4]): 100.0 mm^3 and 34.7 mm^3 (2×) and 36.0 mm^3 and 58.8 mm^3 (2×) and 23.1 mm^3 and 108.0 mm^3 and 84.7 mm^3 and 152.5 mm^3 and 51.6 mm^3 and 44.0 mm^3 and 36.1 mm^3 and 18.9 mm^3 and 111.6 mm^3 and 87.7 mm^3
- Tumor Volumes, Day 8 (T47D xenograft tumor; [4]): 74.1 mm^3 and 20.0 mm^3 and 26.0 mm^3 and 14.5 mm^3 and 52.9 mm^3 and 14.0 mm^3 and 65.0 mm^3 and 55.0 mm^3 and 99.1 mm^3 and 32.8 mm^3 and 46.6 mm^3 and 55.2 mm^3 and 20.7 mm^3 and 21.8 mm^3 and 43.6 mm^3 and 40.3 mm^3
- Tumor Volumes, Day 10 (T47D xenograft tumor; [4]): 106.2 mm^3 and 73.0 mm^3 and 39.2 mm^3 and 37.6 mm^3 and 64.8 mm^3 and 28.1 mm^3 and 105.6 mm^3 and 95.3 mm^3 and 123.0 mm^3 and 49.0 mm^3 and 56.1 mm^3 and 58.2 mm^3 and 32.9 mm^3 and 44.5 mm^3 and 63.6 mm^3 and 67.7 mm^3
- Tumor Volumes, Day 12 (T47D xenograft tumor; [4]): 225.3 mm^3 and 33.6 mm^3 and 34.5 mm^3 and 18.5 mm^3 and 77.2 mm^3 and 13.9 mm^3 and 123.6 mm^3 and 0.5 mm^3 (2×) and 97.7 mm^3 and 48.7 mm^3 and 49.0 mm^3 and 63.6 mm^3 and 29.4 mm^3 and 23.1 mm^3 and 189.2 mm^3
- Tumor Volumes, Day 15 (T47D xenograft tumor; [4]): 81.6 mm^3 and 41.6 mm^3 and 35.3 mm^3 and 32.0 mm^3 and 78.0 mm^3 and 19.7 mm^3 and 72.5 mm^3 and 37.0 mm^3 and 62.5 mm^3 and 22.9 mm^3 and 35.4 mm^3 and 53.0 mm^3 and 22.0 mm^3 and 20.1 mm^3 and 92.5 mm^3 and 49.6 mm^3
- Tumor Volumes, Day 19 (T47D xenograft tumor; [4]): 91.9 mm^3 and 38.8 mm^3 and 12.0 mm^3 and 19.7 mm^3 and 45.6 mm^3 and 11.5 mm^3 and 58.8 mm^3 and 28.7 mm^3 and 90.9 mm^3 and 15.6 mm^3 and 24.6 mm^3 and 35.7 mm^3 (2×) and 14.9 mm^3 and 9.3 mm^3 and 58.2 mm^3
- Tumor Volumes, Day 23 (T47D xenograft tumor; [4]): 0.5 mm^3 and 12.2 mm^3 and 9.1 mm^3 and 29.7 mm^3 and 81.5 mm^3 and 10.3 mm^3 and 51.9 mm^3 and 13.1 mm^3 and 7.9 mm^3 and 9.5 mm^3 and 28.1 mm^3 and 29.8 mm^3 and 18.5 mm^3 and 10.1 mm^3 and 34.2 mm^3 and 14.9 mm^3
- Tumor Volumes, Day 0 (T47D xenograft tumor; individual tumor, baseline, T47D xenograft): 75.1 mm^3 and 40.3 mm^3 and 39.7 mm^3 and 71.3 mm^3 (2×) and 50.8 mm^3 and 25.4 mm^3 and 80.2 mm^3 (2×) and 96.2 mm^3 and 24.9 mm^3 and 70.2 mm^3 and 29.6 mm^3 and 23.1 mm^3 and 47.1 mm^3 and 52.9 mm^3
- liver toxicity ([2]; AST ELISA assay): undetectable
- AST activity ([2]; aspartate aminotransferase ELISA, treated xenograft mice): around 70 milliunits/mL
- toxicity in vivo ([2]; high concentrations): No obvious toxicity
- signs around the tumor and the site of injection ([2]; intra-tumoral injection, not observed with vehicle only): subcutaneous bleeding, bruising, and discoloration
- gross tissue damage ([2]; liver, lung, kidney, brain, and heart): no gross tissue damages were observed
- target E3 ubiquitin ligase CHIP (STUB1) (CHIP ubiquitin E3 ligase): found to target
- immunosuppressant activity [3]: immunosuppressant activity
